For data set [1] the following is noted: amide bond, HBTU/DIPEA, DMF, 10.0 mM, 25.0 °C, 2.0 h.
The target in data set [2] is T1, truncated LRRK2 (GST tagged LRRK2 of amino acids 970-2527) (Homo sapiens, UniProt Q5S007).
T1 construct: GST tagged LRRK2 of amino acids 970-2527; GST
The experiment in a line: LRRKtide 32P-ATP peptide kinase assay (Protocol 1), truncated LRRK2. The class given is biochemical. As to conditions: 10 μM ATP, 200 μM lrrktide. Here is the method: (§1) The inhibition of LRRK2 and LRRK1 kinase was assessed using LRRK2 and LRRK1 recombinant protein in an in vitro peptide-based kinase assay.
(§2) LRRK2 protein is prepared as described in Daniëls et al. ((2011) J Neurochem 116, 304-315.). HEK293T cells are transfected with pCHMWS-3xflag-LRRK2 plasmid using polyethyleneimine and lysed after 48-72 hours in lysis buffer (Tris 20 mM pH 7.5, NaCl 150 mM, EDTA 1 mM, Triton 1%, Glycerol 10%, protease inhibitor cocktail). Lysates are cleared by centrifugation at 20,000 g for 10 minutes and incubated with normal mouse IgGs bound to agarose beads to remove proteins aspecifically binding to agarose or mouse IgGs. After removal of the IgG bead slurry, lysates are incubated for 3 to 18 hours with flagM2 bound to agarose beads. Beads are washed 4 times with wash buffer (Tris 25 mM pH 7.5, NaCl 400 mM, Triton 1%) and rinsed in kinase buffer (Tris-HCl 25 mM pH 7.5, 10 mM MgCl2, 2 mM dithiothreitol (DTT), 0.02% triton, 5 mM beta-glycerophosphate, 0.1 mM Na3VO4). Proteins are eluted in 5 volumes of kinase buffer containing 100 μg/ml 3xflag peptide. For assays using purified protein bound to affinity resin, affinity beads are resuspended in an equal volume of kinase buffer unless otherwise indicated. Purity and concentration are assessed by SDS-PAGE (3-8% tris-acetate SDS gel) and Coomassie Brilliant Blue staining or silver staining. Alternatively, a truncated LRRK2 enzyme (GST tagged LRRK2 of amino acids 970-2527) and a truncated LRRK2-G2019S (GST tagged LRRK2-G2019S of amino acids 970-2527) are used.
(§3) For Irrktide phosphorylation, recombinant LRRK2 is incubated with 6 μCi of 32P-ATP (3000 Ci/mmol), 200 μM Irrktide, 10 μM ATP and compound or solvent per 40 μl reaction for 30 minutes at 30° C. Compounds are tested at concentrations ranging from […]; the final amount of DMSO in the kinase reaction is 1%. Reactions are stopped and spotted to P81 phosphocellulose paper and washed 4×10 minutes in 75 mM phosphoric acid. Lrrktide phosphorylation levels are measured via autoradiography. Kinase assays are performed for each condition in triplicate.
(§4) LRRKtide phosphorylation levels are plotted vs. the log of the compound concentration and inhibition curves are fitted from which IC50 values are derived.

Data set [3] has as its target T2, truncated LRRK2-G2019S (GST tagged LRRK2-G2019S of amino acids 970-2527) (Homo sapiens, UniProt Q5S007, G2019S).
T2 construct: GST tagged LRRK2-G2019S of amino acids 970-2527; GST
The experiment in a line: LRRKtide 32P-ATP peptide kinase assay (Protocol 1), truncated LRRK2-G2019S. The class given is biochemical. The following applies: 10 μM ATP, 200 μM lrrktide. Here is the method:
as §1, §2, §3, §4

For another data set, the target named is T3, full-length LRRK2 (Homo sapiens, UniProt Q5S007).
T3 construct: full-length; made in house; host or cells: HEK293T
The experiment in a line: LRRKtide 32P-ATP peptide kinase assay (Protocol 1), full-length LRRK2. Type of data set: biochemical. The following applies: 10 μM ATP, 200 μM lrrktide. Here is the method:
as §1, §2
For Irrktide phosphorylation, recombinant LRRK2 is incubated with 6 μCi of 32P-ATP (3000 Ci/mmol), 200 μM Irrktide, 10 μM ATP and compound or solvent per 40 μl reaction for 30 minutes at 30° C. Compounds are tested at concentrations ranging from […]; the final amount of DMSO in the kinase reaction is 1%. Reactions are stopped and spotted to P81 phosphocellulose paper and washed 4×10 minutes in 75 mM phosphoric acid. Lrrktide phosphorylation levels are measured via autoradiography. Kinase assays are performed for each condition in triplicate. […]

In general, melting point refers to the temperature, or range, at which the solid turns liquid. Broadly, the IC50 is the concentration that gives 50% inhibition. A low value points to greater potency in that assay.

Like-named read-outs stand apart in the source and are kept apart here.

T3 sequence (Q5S007 whole entry): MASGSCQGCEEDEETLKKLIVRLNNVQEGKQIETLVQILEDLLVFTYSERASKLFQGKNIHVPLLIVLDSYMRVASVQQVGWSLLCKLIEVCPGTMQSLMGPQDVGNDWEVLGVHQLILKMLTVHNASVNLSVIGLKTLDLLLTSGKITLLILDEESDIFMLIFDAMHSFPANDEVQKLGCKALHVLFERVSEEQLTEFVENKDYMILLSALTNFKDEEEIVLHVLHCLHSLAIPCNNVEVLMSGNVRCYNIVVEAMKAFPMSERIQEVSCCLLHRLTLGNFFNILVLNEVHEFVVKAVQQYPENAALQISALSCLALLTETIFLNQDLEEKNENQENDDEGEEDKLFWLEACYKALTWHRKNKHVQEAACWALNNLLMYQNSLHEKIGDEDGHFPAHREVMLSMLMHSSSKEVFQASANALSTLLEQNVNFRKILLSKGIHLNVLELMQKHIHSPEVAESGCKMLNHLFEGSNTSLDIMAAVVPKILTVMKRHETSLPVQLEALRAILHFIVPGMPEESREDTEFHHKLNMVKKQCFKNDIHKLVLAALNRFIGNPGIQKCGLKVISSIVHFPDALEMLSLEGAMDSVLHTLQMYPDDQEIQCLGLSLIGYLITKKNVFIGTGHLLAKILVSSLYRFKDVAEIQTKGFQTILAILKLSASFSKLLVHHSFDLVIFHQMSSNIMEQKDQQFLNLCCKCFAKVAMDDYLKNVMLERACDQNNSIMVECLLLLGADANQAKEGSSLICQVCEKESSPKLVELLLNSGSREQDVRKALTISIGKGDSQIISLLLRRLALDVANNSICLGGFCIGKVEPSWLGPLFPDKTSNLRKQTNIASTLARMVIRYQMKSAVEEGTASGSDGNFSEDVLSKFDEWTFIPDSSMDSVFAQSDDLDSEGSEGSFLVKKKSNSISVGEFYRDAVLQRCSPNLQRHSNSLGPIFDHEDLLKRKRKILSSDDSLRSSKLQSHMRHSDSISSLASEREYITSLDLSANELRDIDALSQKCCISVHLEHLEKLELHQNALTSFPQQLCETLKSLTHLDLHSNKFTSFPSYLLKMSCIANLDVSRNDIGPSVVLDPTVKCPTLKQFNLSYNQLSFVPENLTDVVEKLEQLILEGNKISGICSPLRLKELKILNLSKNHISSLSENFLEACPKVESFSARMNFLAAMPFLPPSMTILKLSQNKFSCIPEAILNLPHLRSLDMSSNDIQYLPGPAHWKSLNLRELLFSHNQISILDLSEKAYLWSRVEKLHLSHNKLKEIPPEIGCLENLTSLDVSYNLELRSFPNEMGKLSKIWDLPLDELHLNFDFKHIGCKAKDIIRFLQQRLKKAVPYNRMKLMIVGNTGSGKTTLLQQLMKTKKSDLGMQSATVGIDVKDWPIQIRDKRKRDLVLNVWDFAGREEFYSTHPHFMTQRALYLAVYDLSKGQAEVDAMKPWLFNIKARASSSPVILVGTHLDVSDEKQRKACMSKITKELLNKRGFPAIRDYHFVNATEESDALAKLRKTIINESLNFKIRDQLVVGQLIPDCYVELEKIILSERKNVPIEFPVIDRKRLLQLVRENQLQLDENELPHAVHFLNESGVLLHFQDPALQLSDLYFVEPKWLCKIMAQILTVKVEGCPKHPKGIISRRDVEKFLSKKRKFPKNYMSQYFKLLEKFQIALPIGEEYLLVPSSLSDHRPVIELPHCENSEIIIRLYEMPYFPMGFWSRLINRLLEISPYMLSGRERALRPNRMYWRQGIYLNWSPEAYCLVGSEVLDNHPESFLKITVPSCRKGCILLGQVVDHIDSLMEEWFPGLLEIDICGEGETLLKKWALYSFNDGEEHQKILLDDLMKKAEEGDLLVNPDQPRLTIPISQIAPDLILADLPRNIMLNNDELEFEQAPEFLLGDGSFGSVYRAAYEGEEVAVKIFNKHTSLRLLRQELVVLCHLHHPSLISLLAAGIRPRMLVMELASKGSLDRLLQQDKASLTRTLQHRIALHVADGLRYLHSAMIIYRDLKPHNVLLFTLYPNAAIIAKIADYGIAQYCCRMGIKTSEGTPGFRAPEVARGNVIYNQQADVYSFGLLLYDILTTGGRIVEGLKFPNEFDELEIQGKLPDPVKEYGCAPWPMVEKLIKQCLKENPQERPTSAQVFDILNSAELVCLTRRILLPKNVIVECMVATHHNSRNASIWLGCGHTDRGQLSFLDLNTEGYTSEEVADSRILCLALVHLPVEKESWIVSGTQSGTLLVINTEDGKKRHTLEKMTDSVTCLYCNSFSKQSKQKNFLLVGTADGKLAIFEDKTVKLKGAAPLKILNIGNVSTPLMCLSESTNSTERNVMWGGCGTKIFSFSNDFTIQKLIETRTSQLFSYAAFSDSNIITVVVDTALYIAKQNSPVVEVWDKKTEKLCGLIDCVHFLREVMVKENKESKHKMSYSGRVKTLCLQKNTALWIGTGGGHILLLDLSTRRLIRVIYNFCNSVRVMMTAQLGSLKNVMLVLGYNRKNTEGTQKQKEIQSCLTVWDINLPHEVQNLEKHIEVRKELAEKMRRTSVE
T2 sequence (Q5S007 970-2527 G2019S): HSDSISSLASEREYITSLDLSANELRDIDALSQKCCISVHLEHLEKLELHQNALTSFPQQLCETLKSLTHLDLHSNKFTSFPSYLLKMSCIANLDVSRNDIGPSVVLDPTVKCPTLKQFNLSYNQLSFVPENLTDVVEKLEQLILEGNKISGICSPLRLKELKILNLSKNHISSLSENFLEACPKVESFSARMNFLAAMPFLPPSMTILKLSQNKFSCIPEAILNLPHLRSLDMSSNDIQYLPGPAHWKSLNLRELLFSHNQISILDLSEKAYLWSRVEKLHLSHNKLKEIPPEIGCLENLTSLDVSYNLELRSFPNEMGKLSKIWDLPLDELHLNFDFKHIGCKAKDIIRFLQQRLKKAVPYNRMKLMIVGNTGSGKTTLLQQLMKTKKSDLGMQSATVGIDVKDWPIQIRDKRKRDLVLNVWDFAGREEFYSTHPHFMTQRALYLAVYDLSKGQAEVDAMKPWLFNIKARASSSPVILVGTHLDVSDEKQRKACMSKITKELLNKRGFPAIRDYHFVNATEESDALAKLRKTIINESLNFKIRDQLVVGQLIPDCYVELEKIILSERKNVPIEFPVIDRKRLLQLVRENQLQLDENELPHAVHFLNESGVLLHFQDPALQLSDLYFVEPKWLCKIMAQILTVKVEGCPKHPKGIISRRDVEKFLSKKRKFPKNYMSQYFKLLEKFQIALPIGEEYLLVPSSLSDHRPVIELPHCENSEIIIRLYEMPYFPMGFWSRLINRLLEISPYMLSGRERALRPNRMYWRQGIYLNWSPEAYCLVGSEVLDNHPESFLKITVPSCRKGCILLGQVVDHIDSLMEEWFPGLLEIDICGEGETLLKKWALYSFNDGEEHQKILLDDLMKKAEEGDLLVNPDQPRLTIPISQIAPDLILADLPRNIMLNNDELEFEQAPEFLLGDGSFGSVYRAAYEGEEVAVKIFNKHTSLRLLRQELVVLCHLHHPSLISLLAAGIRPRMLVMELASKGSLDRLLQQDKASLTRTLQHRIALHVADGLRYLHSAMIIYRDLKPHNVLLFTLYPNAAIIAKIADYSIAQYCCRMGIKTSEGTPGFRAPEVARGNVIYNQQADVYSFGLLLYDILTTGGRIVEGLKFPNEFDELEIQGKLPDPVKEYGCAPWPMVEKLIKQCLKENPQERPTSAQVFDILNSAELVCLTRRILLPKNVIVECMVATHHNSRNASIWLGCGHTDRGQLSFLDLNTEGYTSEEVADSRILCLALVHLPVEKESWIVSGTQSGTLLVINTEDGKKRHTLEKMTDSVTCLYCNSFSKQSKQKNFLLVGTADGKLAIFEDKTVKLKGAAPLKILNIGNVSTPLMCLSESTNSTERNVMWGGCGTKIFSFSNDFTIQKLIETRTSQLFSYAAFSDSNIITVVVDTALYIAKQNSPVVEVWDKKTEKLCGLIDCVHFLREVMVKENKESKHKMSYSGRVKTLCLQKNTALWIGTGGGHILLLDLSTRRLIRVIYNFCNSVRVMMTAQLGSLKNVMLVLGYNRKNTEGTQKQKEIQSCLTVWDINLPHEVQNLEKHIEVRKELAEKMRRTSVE
T1 sequence (Q5S007 970-2527): as the sequence (Q5S007 970-2527 G2019S) above, with S1050G counted along it

On to `O=C1CNc2ccn3ncc(c3n2)-c2cccc(c2)OCCCCN1`, for which the melting point was above 300 °C. In data set [1] (from NCCCCOc1cccc(-c2cnn3ccc(NCC(=O)O)nc23)c1), this compound displayed a ring closure, yield of all isomers of 19%.

`O=C1CNc2ccn3ncc(c3n2)-c2cccc(c2)OCCOCCN1` [Compound 72] came in with a melting point of 272.5 °C. The ring closure, yield of all isomers in data set [1] (from NCCOCCOc1cccc(-c2cnn3ccc(NCC(=O)O)nc23)c1) was 30%.

As for `O=C1CCCOc2cccc(c2)-c2cnn3ccc(nc23)NCCN1` [Example 2], the melting point is above 300 °C. Further, the IC50 in data set [2] lay in the range of 100 to 1000 nM. In data set [3], the IC50 lay in the range of 100 to 1000 nM. In addition, at full-length LRRK2, the IC50 was below 100 nM.

For `O=C1CCNc2ccn3ncc(c3n2)-c2cccc(c2)OCCN1` [Example 3], the melting point was above 300 °C. In addition, the IC50 in data set [2] is below 100 nM. The same compound registered an IC50 in data set [3] below 100 nM. This compound also came in with an IC50 against full-length LRRK2 below 100 nM.

As for `CN1CCNc2ccn3ncc(c3n2)-c2cccc(c2)OCC1=O` [Example 5], the melting point is above 300 °C. The IC50 in data set [2] lay in the range of 100 to 1000 nM. This compound came in with an IC50 in data set [3] of 100 to 1000 nM. The compound further showed an IC50 at full-length LRRK2 of 100 to 1000 nM.
